Experimental data: patent publication US7384934B2, “Piperazine substituted aryl benzodiazepines” (Eli Lilly and Company, priority 2002, dated 2008)
Structures can show the parent of a compound that is named as a salt.

test system: not given; assay: not given; conditions: not given

melting point | Structure (SMILES)
230 °C | Cc1cc2c(s1)Nc1cc(F)ccc1N=C2N1CCN(C)[C@@H](CCO)C1.Cl.Cl
180 to 182 °C | CCOCC[C@H]1CN(C2=Nc3ccc(F)cc3Nc3sc(C)cc32)CCN1C.Cl
192 to 194 °C | COCC[C@H]1CN(C2=Nc3cc(F)ccc3Nc3sc(C)cc32)CCN1C.Cl
193 to 195 °C | CCOCC[C@H]1CN(C2=Nc3cc(F)ccc3Nc3sc(C)cc32)CCN1C.Cl.Cl
194 °C | CSCC[C@H]1CN(C2=Nc3ccc(F)cc3Nc3sc(C)cc32)CCN1C.Cl.Cl
210 °C | COCC[C@H]1CN(C2=Nc3ccccc3Nc3ccc(C(C)C)cc32)CCN1C (as salt: hydrochloride)
205 °C | COCC[C@H]1CN(C2=Nc3ccccc3Nc3ccc(Cl)cc32)CCN1C (as salt: hydrochloride)
90 °C | COCC[C@H]1CN(C2=Nc3ccc(F)cc3Nc3sc(C)cc32)CCN1 (as salt: hydrochloride) [Example 248b, (S)-6-Fluoro-10-[3-(2-methoxy-ethyl)-piperazin-1-yl]-2-methyl-4H-3-thia-4,9-diaza-benzo[f]azulene dihydrochloride]
190 to 192 °C | COCC[C@H]1CN(C2=Nc3ccc(F)cc3Nc3sc(C)cc32)CCN1C (as salt: hydrochloride) [Example 279a, (S)-6-Fluoro 10-[3-(2-methoxy-ethyl)-4-methyl-piperazin-1-yl]-2-methyl-4H-3-thia-4,9-diaza-benzo[f]azulene dihydrochloride]
186 to 188 °C | CCc1cc2c(s1)Nc1cc(F)ccc1N=C2N1CCN(C)[C@@H](CCOC)C1 (as salt: hydrochloride) [Example 280, (S)-6-Fluoro-10-[3-(2-methoxy-ethyl)-4-methyl-piperazin-1-yl]-2-ethyl-4H-3-thia-4,9-diaza-benzo[f]azulene dihydrochloride]
174 to 176 °C | COCC[C@H]1CN(C2=Nc3ccc(Cl)cc3Nc3sc(C)cc32)CCN1C (as salt: hydrochloride) [Example 291, (S)-6-Chloro-10-[3-(2-methoxy-ethyl)-4-methyl-piperazin-1-yl]-2-methyl-4H-3-thia-4,9-diaza-benzo[f]azulene dihydrochloride]
200 to 202 °C | COCC[C@H]1CN(C2=Nc3cc(Cl)ccc3Nc3sc(C)cc32)CCN1C (as salt: hydrochloride) [Example 292, (S)-7-Chloro-10-[3-(2-methoxy-ethyl)-4-methyl-piperazin-1-yl]-2-methyl-4H-3-thia-4,9-diaza-benzo[f]azulene dihydrochloride]

molecular target: T1, Dopamine D2 receptor (Homo sapiens, UniProt P14416); assay: Dopamine D2 receptor binding assay ([125I]iodospiperone); conditions: relative Ki scale of Table 5; read-out: Relative D2 Receptor Binding Affinity Ki
T1 construct: purchased Receptor Biology (now owned by NEN) RBHD2CM
T1 sequence (P14416 1-414 isoform P14416-2): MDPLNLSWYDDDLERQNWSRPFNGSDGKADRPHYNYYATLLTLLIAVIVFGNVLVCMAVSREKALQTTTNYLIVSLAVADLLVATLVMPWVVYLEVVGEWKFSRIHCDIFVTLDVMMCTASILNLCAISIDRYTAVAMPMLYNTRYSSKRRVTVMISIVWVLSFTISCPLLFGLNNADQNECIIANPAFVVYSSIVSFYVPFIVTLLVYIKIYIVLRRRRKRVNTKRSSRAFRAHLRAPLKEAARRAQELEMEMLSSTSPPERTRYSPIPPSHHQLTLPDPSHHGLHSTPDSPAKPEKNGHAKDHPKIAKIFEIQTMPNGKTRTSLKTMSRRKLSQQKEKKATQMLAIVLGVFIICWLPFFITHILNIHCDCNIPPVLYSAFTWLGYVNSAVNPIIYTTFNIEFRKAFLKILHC
Description: The assay buffers used are 50 mM Tris-HCl pH 7.4, 120 mM NaCl, 5 mM KCl, 5 mM MgCl2, 1 mM EDTA for the Dopamine D2s receptor binding assay. […] The membranes used are from Receptor Biology (now owned by NEN), Cat # RBHD2CM for the D2 receptor.
Compounds are obtained as 10 mM stocks in 100% DMSO. They are diluted to 1 mM in 100% DMSO by adding 180 μL DMSO to 20 μL of stock in 96 well plates using a multidrop. […] This is done using a TECAN robot.
The radioligand is diluted in assay buffer to provide 0.1 nM for the D2 assay. Each vial of membranes is diluted up to 92 mL in assay buffer. The final assay volume is 250 μL consisting of 210 μl of diluted membranes, 20 μL of compound or 10% DMSO for total binding, and 20 μL of diluted radioligand. The compounds are transferred from drug dilution plates into coming 96 well assay plates using a 96 well Multimek pipettor. Radioligand and membranes are added to assay plates using multidrop pipettors. Non-specific binding is determined in wells containing a final concentration of 5 μM haloperidol. The final drug concentration range in half logs is from 10 μM down to 0.1 nM.
After addition of drug, membrane, and ligand, the plates are incubated for 2 hours at room temperature. During this time 96 well Millipore filter plates (MAFBNOB50) are soaked for a least 30 minutes with 200 μL per well of 0.5% polyethyleneimine.
The 0.5% PEI is removed from filterplate wells using a TiterTek MAP aspirator and 200 μL of the incubation mixture is transferred from the incubation plate to the filterplate after mixing. This transfer is done using the 96 tip Mutimek pipettor. After transfer to the filterplate filterplates are extracted and ished twice with 220 μL per well of cold buffer on the MAP aspirator. The peel away bottoms are removed from the filterplates and 60 μL per well of microscint 20 scintillation fluid is added per well using a multidrop. […]

Ki | Structure (SMILES)
10 to 100 nM | CCOCC[C@H]1CN(C2=Nc3ccccc3Nc3sc(C(C)C)nc32)CCN1C [Example 328, (S)-10-[3-(2-Ethoxyethyl)-4-methylpiperazin-1-yl]-2-isopropyl-4H-3-thia-1,4,9-triazabenzo[f]azulene dihydrochloride]
10 to 100 nM | COCC[C@H]1CN(C2=Nc3ccccc3Nc3sc(C4CCCC4)nc32)CCN1C [Example 331, (S)-10-[3-(2-Methoxyethyl)-4-methylpiperazin-1-yl]-2-cyclopentyl 4H-3-thia-1,4,9-triazabenzo[f]azulene dihydrochloride]
100 to 1000 nM | CCOC(=O)c1nc2c(s1)Nc1ccccc1N=C2N1CCN(C)[C@@H](CCOC)C1 [Example 333, (S)-10-[3-(2-Methoxy-ethyl)-4-methyl-piperazin-1-yl]-4H-3-thia-1,4,9-triaza-benzo[f]azulene-2-carboxylic acid ethyl ester dihydrochloride]
< 10 nM | COCC[C@H]1CN(C2=Nc3ccccc3Nc3sc(C(F)(F)F)nc32)CCN1C [Example 334, (S)-10-[3-(2-Methoxy-ethyl)-4-methyl-piperazin-1-yl]-2-trifluoromethyl-4H-3-thia-1,4,9-triaza-benzo[f]azulene]
< 10 nM | COCC[C@H]1CN(C2=Nc3ccccc3Nc3sc(C(F)F)nc32)CCN1C [Example 336, (S)-10-[3-(2-Methoxy-ethyl)-4-methyl-piperazin-1-yl]-2-difluoromethyl 4H-3-thia-1,4,9-triaza-benzo[f]azulene]
10 to 100 nM | COCC[C@H]1CN(C2=Nc3ccccc3Nc3sc(CCC(F)(F)F)nc32)CCN1C [Example 338, (S)-10-[3-(2-Methoxy-ethyl)-4-methyl-piperazin-1-yl]-2-(3,3,3-trifluoro-propyl)-4H-3-thia-1,4,9-triaza-benzo[f]azulene dihydrochloride]
10 to 100 nM | COCC[C@H]1CN(C2=Nc3ccccc3Nc3sc(C(C)C)nc32)CCN1C1CC1 [Example 339, (S)-10-[4-Cyclopropyl-3-(2-methoxyethyl)piperazin-1-yl]-2-isopropyl-4H-3-thia-1,4,9-triazabenzo[f]azulene dihydrochloride]
10 to 100 nM | CCN1CCN(C2=Nc3ccccc3Nc3sc(C(C)C)nc32)C[C@@H]1CCOC [Example 340, (S)-10-[4-Ethyl-3-(2-methoxyethyl)piperazin-1-yl]-2-isopropyl-4H-3-thia-1,4,9-triazabenzo[f]azulene dihydrochloride]
10 to 100 nM | CCCN1CCN(C2=Nc3ccccc3Nc3sc(C(C)C)nc32)C[C@@H]1CCOC [Example 341, (S)-10-[3-(2-Methoxyethyl)-4-propylpiperazin-1-yl]-2-isopropyl-4H-3-thia-1,4,9-triazabenzo[f]azulene dihydrochloride]
10 to 100 nM | COCC[C@H]1CN(C2=Nc3ccccc3Nc3sc(C(C)C)nc32)CCN1CCO [Example 342, (S)-2-[4-(2-Isopropyl-4H-3-thia-1,4,9-triazabenzo[f]azulene-10-yl)-2-(2-methoxyethyl)piperazin-1-yl]ethanol dihydrochloride]
100 to 1000 nM | COCC[C@H]1CN(C2=Nc3ccccc3Nc3sc(C(C)C)nc32)CCN1CCOC [Example 343, (S)-10-[3,4-Bis(2-methoxyethyl)piperazin-11-yl]-2-isopropyl-4H-3-thia-1,4,9-triazabenzo[f]azulene dihydrochloride]
< 10 nM | CCN1CCN(C2=Nc3ccccc3Nc3sc(C(F)(F)F)nc32)C[C@@H]1CCOC [Example 344, (S)-10-[4-Ethyl-3-(2-methoxy-ethyl)-piperazin-1-yl]-2-trifluoromethyl-4H-3-thia-1,4,9-triaza-benzo[f]azulene]
< 10 nM | CCCN1CCN(C2=Nc3ccccc3Nc3sc(C(F)(F)F)nc32)C[C@@H]1CCOC [Example 346, (S)-10-[3-(2-Methoxy-ethyl)-4-propyl-piperazin-1-yl]-2-trifluoromethyl-4H-3-thia-1,4,9-triaza-benzo[f]azulene]
10 to 100 nM | COCC[C@H]1CN(C2=Nc3ccccc3Nc3sc(C(F)(F)F)nc32)CCN1CCCF [Example 351, (S)-10-[4-(3-Fluoro-propyl)-3-(2-methoxy-ethyl)-piperazin-1-yl]-2-trifluoromethyl-4H-3-thia-1,4,9-triaza-benzo[f]azulene]
10 to 100 nM | COCC[C@H]1CN(C2=Nc3ccccc3Nc3sc(C(F)(F)F)nc32)CCN1CCO [Example 353]
10 to 100 nM | COCC[C@H]1CN(C2=Nc3ccccc3Nc3sc(C(F)(F)F)nc32)CCN1CCCO [Example 355, (S)-3-[2-(2-Methoxy-ethyl)-4-(2-trifluoromethyl-4H-3-thia-1,4,9-triaza-benzo[f]azulene-10-yl)-piperazin-1-yl]-propan-1-ol]
10 to 100 nM | COCC[C@H]1CN(C2=Nc3ccccc3Nc3sc(C(F)(F)F)nc32)CCN1CCOCCO [Example 357]
< 10 nM | CC(C)c1nc2c(s1)Nc1ccccc1N=C2N1CCN[C@@H](CC(C)(C)O)C1 [Example 367, (S)-1-[4-(2-Isopropyl-4H-3-thia-1,4,9-triazabenzo[f]azulene-10-yl)-piperazin-2-yl]-2-methylpropan-2-ol dihydrochloride]
< 10 nM | CC(C)c1nc2c(s1)Nc1ccccc1N=C2N1CCN(C)[C@@H](CC(C)(C)O)C1 [Example 368, (S)-1-[4-(2-Isopropyl-4H-3-thia-1,4,9-triazabenzo[f]azulene-10-yl)-1-methylpiperazin-2-yl]-2-methyl-propan-2-ol dihydrochloride]
100 to 1000 nM | Cc1cc2c(s1)Nc1ccccc1N=C2N1CCN[C@@H](CC(C)(C)O)C1 [Example 369, (S)-2-Methyl-1-[4-(2-methyl-4H-3-thia-4,9-diaza-benzo[f]azulen-10-yl)piperazin-2-yl]-propan-2-ol]
100 to 1000 nM | Cc1cc2c(s1)Nc1ccccc1N=C2N1CCN(C)[C@@H](CC(C)(C)O)C1 [Example 370, (S)-2-Methyl-1-[1-methyl-4-(2-methyl-4H-3-thia-4,9-diazabenzo[f]azulene-10-yl)-piperazin-2-yl]-propan-2-ol dihydrochloride]
